Reference: patent publication US4604383A, “Pyrrolidin-2-ones and medicaments containing them” (Societe Anonyme Styled: SANOFI, priority 1983, dated 1986)
Like-named read-outs stand apart in the source and are kept apart here.

Assays:
[1] = Effect on spontaneous motility (Boissier and Simon activity test, actimetric cages); type: in vivo, mouse (CD1 Charles Rivers female mice); conditions: mouse; for Locomotor activity, score percent/controls: 100 mg/kg p.os., 45 min after administration, 10 min recording, * P <= 0.05, ** P <= 0.01; for Effect on spontaneous motility (in words): oral dose of 100 mg/kg
Procedure: The spontaneous motility of the animals was measured by means of the activity test developed by Boissier and Simon, Arch. Int. Pharmacocyn., 1965, 158, 212-221. The equipment is composed of actimetric cages, type Apelab (26×21.5×10 cm), traversed by two light rays which fall on a photoelectric cell. The batches were constituted by CD1 Charles Rivers female mice, of weight comprised between 20 and 24 g. The animals were placed individually in cages 45 minutes after oral administration of the products at the dose of 100 mg/kg. Each traversal by a light beam was counted by an individual counter. The scores corresponding to the movements of the animals were recorded for 10 minutes, and compared with the scores taken on batches of control animals, treated only with the vehicle (5% gum arabic).

[2] = Acute toxicity, determination of the lethal dose in the mouse; conditions: in vivo, po, read-out: Percent toxicity (animals which die in 72 hours)
Procedure: The toxicity of the products according to the invention was studied: the products were administered orally, to batches of 5 CD Charles Rivers female mice, of weights comprised between 20 and 24 g. The toxicity was noted during the 72 hours which followed the administration of the products.
The results expressed as a percentage of animals which die in the 72 hours following the oral administration of the products, are noted in the preceding table.

[3] = Potentiation of narcosis with pentobarbital (loss of righting reflex); type: in vivo, mouse (CD1 Charles Rivers mice); conditions: mouse, 60 min before pentobarbital 20 mg/kg i.p.; for Potentiation of pentobarbital, percent of animals in narcosis: products at 100 mg/kg p.os.; for ED50: po, p.os., probit method, confidence limits in parentheses, P <= 0.05
Procedure: For the purpose of evaluating the hypnogenic power of the products, their capacity to potentiate the effects of a subnarcotic dose of pentabarbital in the mouse was studied. The batches were constituted by 10 CD1 Charles Rivers mice, of weight comprised between 20 and 24 g.
The pentobarbital (20 mg/kg, i.p.) was administered 60 minutes after administration of the products. The drowsiness criterion taken was the loss of the righting reflex.

[4] = Antagonism of the convulsions induced by electric shock; type: in vivo, mouse (CD1 Charles Rivers mice); conditions: mouse, oral, 60 min before electroshock; probit method, confidence limits in parentheses, p <= 0.05; read-out: Median effective dose (ED50) of electric shock antagonism
Procedure: (§1) The anticonvulsant effect of the products in the mouse was evaluated on a model of convulsions caused by electric shock, and on 2 models of convulsions induced by chemical agents: bicuculline and 3-mercaptopropionic acid.
The test was slightly modified from that of Swinyard et al., J. Pharm. Exp. Ther., 1952, 106, 319-330 and Asami et al. Arzneim. Forsch., 1974, 24 (1), 1563-1568. The equipment was composed of a Racia shock generator provided with two occular electrodes delivering a current of 60 volts for 0.3 seconds. The batches were constituted by 10 CD1 Charles Rivers mice of weight comprised between 20 and 24 g. The products were administered orally, 60 minutes before the electroshock.

[5] = Antagonism of convulsions and of mortality caused by bicucullin; type: in vivo, mouse (CD Charles Rivers mice)
Procedure: as §1
The batches were constituted by 10 CD Charles Rivers mice of weights comprised between 20 and 22 g. The products were administered orally, 60 minutes before the bicucullin (0.8 mg/kg, i.v.).

[6] = Antagonism to the convulsions caused by 3-mercaptopropionic acid; type: in vivo, mouse (CD Charles Rivers mice); conditions: mouse, oral, 60 min before 3-mercaptopropionic acid 60 mg/kg s.c.; probit method, confidence limits in parentheses, p <= 0.05; read-out: Median effective dose (ED50) of antagonism to convulsions caused by 3-mercaptopropionic acid
Procedure: as §1
The batches were constituted by 10 CD Charles Rivers mice of weights comprised between 20 and 22 g. The products were administered orally 60 minutes before the 3-mercaptopropionic acid (60 mg/kg s.c.).

[7] = Mus musculus, po, read-out: Median effective dose (ED50) of the antagonism to the effects of bicucullin: Mortality
[8] = mouse, oral, 60 min before bicucullin 0.8 mg/kg i.v., probit method, confidence limits in parentheses, p < 0.05, read-out: Median effective dose (ED50) of the antagonism to the effects of bicucullin: Tonic convulsions

Compound	Locomotor activity, score percent/controls [1]	Effect on spontaneous motility (in words) [1]	mortality at 72 h ([2]; 250 mg/kg)	mortality at 72 h ([2]; 500 mg/kg)	mortality at 72 h ([2]; 1000 mg/kg)	Potentiation of pentobarbital, percent of animals in narcosis [3]	ED50 [3]	ED50 [4]	ED50 [5, 7]	ED50 [5, 8]	ED50 [6]	mortality at 72 h ([2]; 250 mg/kg p.os.)	mortality at 72 h ([2]; 500 mg/kg p.os.)	mortality at 72 h ([2]; 1000 mg/kg p.os.)
C[C@@H]1C[C@@H](Cc2cccs2)NC1=O (relative stereo) [SR 42008, 3-methyl-5-(2-thienyl-methyl)-2-pyrrolidinone]	-52%	sedative activity characterized by a considerable reduction in the motility	0%	0%	0%									
C[C@H]1C[C@@H](Cc2cccs2)NC1=O (relative stereo) [SR 42009, 3-methyl-5-(2-thienyl-methyl)-2-pyrrolidinone]	-23%	sedative activity characterized by a considerable reduction in the motility	0%	0%	40%									
CC1(C)CC(Cc2ccc(F)cc2)NC1=O (centres unmarked) [SR 41293, 3,3-dimethyl-5-[(4-fluoro-phenyl)-methyl]2-pyrrolidinone]						80%	56 mg/kg	99 mg/kg	41 mg/kg	90 mg/kg	20 mg/kg	0%	0%	80%
CC1CC(Cc2ccc(Cl)cc2Cl)NC1=O (centres unmarked) [SR 41676]	-34%	sedative activity characterized by a considerable reduction in the motility				100%	48 mg/kg				23 mg/kg	0%	0%	0%
COc1ccc(CC2CC(C)(C)C(=O)N2)cc1OC (centres unmarked) [SR 41677]						30%						0%	0%	
CC1CC(Cc2ccccc2Cl)NC1=O (centres unmarked) [SR 41678]	+45%	stimulating effects of the motor activity				30%		44 mg/kg		76 mg/kg	53 mg/kg	0%	0%	60%
CC1(C)CC(Cc2ccccc2F)NC1=O (centres unmarked) [SR 41680]	+99%	stimulating effects of the motor activity						51 mg/kg			54 mg/kg	0%	0%	
COc1ccc(CC2CC(c3ccccc3)C(=O)N2)cc1OC (centres unmarked) [SR 41773]												0%	0%	
CC1(C)CC(Cc2ccc(Cl)cc2)NC1=O (centres unmarked) [SR 41873]						10%		62 mg/kg	85 mg/kg	112 mg/kg	48 mg/kg	0%	0%	
CC1(C)CC(Cc2ccccc2Cl)NC1=O (centres unmarked) [SR 41880]						40%						0%	0%	20%
CC1CC(Cc2ccccc2F)NC1=O (centres unmarked) [SR 41881]	+41%	stimulating effects of the motor activity				30%		92 mg/kg			46 mg/kg	0%	0%	100%
CC1CC(Cc2ccc(F)cc2)NC1=O (centres unmarked) [SR 41882, 5[(4-fluoro-phenyl)-methyl]-3-methyl-2-pyrrolidinone]						20%					41 mg/kg	0%	0%	100%
